This passage reports IC50 results from US20240270741A1 (Cogent Biosciences, Inc., priority 2023, published 2024).

One experiment deals with FGFR2 (Homo sapiens, UniProt P21802). As to the kind of experiment: FGFR wild type enzyme assay (HTRF KinEASE-TK), FGFR2. The settings on record: Enz FGFR2 (nM).
Chain of FGFR2 (P21802 399-821 limits assumed): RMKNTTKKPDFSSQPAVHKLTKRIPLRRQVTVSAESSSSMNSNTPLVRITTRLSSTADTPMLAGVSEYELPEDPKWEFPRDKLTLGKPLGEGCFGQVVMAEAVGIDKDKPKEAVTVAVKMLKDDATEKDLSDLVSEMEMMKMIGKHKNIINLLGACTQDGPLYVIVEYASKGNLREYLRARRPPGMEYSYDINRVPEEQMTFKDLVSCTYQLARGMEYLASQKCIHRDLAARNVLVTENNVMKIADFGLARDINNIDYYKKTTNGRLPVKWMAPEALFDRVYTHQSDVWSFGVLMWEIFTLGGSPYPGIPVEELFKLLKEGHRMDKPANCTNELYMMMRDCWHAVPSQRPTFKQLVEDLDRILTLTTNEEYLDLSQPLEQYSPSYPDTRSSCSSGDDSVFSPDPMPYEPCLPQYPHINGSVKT
Take `Cc1c(-c2cc(Sc3ncccc3F)c3c(C#N)cnn3c2)cnn1[C@H]1CC[C@@H](N(C)C)CC1` [Example 113]: the IC50 worked out at 1 nM.

`Cc1c(-c2cc(Sc3ccc(Cl)cc3C#N)c3c(C#N)cnn3c2)cnn1C1CCNCC1` [Example 123, 4-(4-chloro-2-cyano-phenyl)sulfanyl-6-[5-methyl-1-(4-piperidyl)pyrazol-4-yl]pyrazolo[1,5-a]pyridine-3-carbonitrile]: the IC50 turned out to be 9 nM.

Regarding `Cc1c(-c2cc(Sc3ncccc3F)c3c(C#N)cnn3c2)cnn1[C@H]1CCCNC1` [Example 86, 4-[(3-fluoro-2-pyridyl)sulfanyl]-6-[5-methyl-1-[(3S)-3-piperidyl]pyrazol-4-yl]pyrazolo[1,5-a]pyridine-3-carbonitrile], the IC50 came to 2 nM.

Molecule `Cc1c(-c2cc(Sc3ccccc3F)c3c(C#N)cnn3c2)cnn1C1CCN(C)CC1` [Example 125] came in with an IC50 of 1 nM.

The molecule `CN1CCC[C@H]1C(=O)N1CCC(n2cc(-c3cc(Sc4ncccc4F)c4c(C#N)cnn4c3)cn2)CC1` [Example 126, 4-[(3-fluoro-2-pyridyl)sulfanyl]-6-[1-[1-[(2S)-1-methylpyrrolidine-2-carbonyl]-4-piperidyl]pyrazol-4-yl]pyrazolo[1,5-a]pyridine-3-carbonitrile] displayed an IC50 of 1 nM.

Molecule `Cc1nc(Sc2cc(-c3cnn(C4CCNCC4)c3C)cn3ncc(C#N)c23)ccc1Cl` [Example 115, 4-[(5-chloro-6-methyl-2-pyridyl)sulfanyl]-6-[5-methyl-1-(4-piperidyl)pyrazol-4-yl]pyrazolo[1,5-a]pyridine-3-carbonitrile] showed an IC50 of 1 nM.

The same experiment, now with this note: Enz FGFR2 (nM), FGFR2 wild type enzyme.
`Cc1c(-c2cc(Sc3ccccc3C#N)c3c(C#N)cnn3c2)cnn1C1CCN(CCO)CC1` [Example 138, 4-((2-cyanophenyl)thio)-6-(1-(1-(2-hydroxyethyl)piperidin-4-yl)-5-methyl-1H-pyrazol-4-yl)pyrazolo[1,5-a]pyridine-3-carbonitrile] showed an IC50 of 1 nM.

On to `Cc1c(-c2cc(Sc3ncccc3F)c3c(C#N)cnn3c2)cnn1C[C@@H](C)N(C)C` [Example 181, (R)-6-(1-(2-(dimethylamino)propyl)-5-methyl-1H-pyrazol-4-yl)-4-((3-fluoropyridin-2-yl)thio)pyrazolo[1,5-a]pyridine-3-carbonitrile], for which the IC50 stood at 7 nM.

The molecule `CC(=O)N[C@H]1CC[C@H](n2ncc(-c3cc(Sc4ccccc4C#N)c4c(C#N)cnn4c3)c2C)CC1` [Example 272, N-((1r,4r)-4-(4-(3-cyano-4-((2-cyanophenyl)thio)pyrazolo [1,5-a]pyridin-6-yl)-5-methyl-1H-pyrazol-1-yl)cyclohexyl)acetamide] gave an IC50 of 1 nM.

On to `CC(=O)N[C@H]1CC[C@@H](n2ncc(-c3cc(Sc4ccccc4C#N)c4c(C#N)cnn4c3)c2C)CC1` [Example 273, N-((1s,4s)-4-(4-(3-cyano-4-((2-cyanophenyl)thio)pyrazolo [1,5-a]pyridin-6-yl)-5-methyl-1H-pyrazol-1-yl)cyclohexyl)acetamide], for which the IC50 stood at 0.5 nM.

Take `Cc1c(-c2cc(Sc3ccccc3F)c3c(C#N)cnn3c2)cnn1[C@@H]1CCCNC1` [Example 136, (R)-4-((2-fluorophenyl)thio)-6-(5-methyl-1-(piperidin-3-yl)-1H-pyrazol-4-yl)pyrazolo[1,5-a]pyridine-3-carbonitrile]: the IC50 is 4 nM.

Turning to `Cc1c(-c2cc(Sc3ccccc3C#N)c3c(C#N)cnn3c2)cnn1[C@H]1CC[C@H](O)CC1` [Example 189, 4-((2-cyanophenyl)thio)-6-(1-((1r,4r)-4-hydroxycyclohexyl)-5-methyl-1H-pyrazol-4-yl)pyrazolo[1,5-a]pyridine-3-carbonitrile], the IC50 worked out at 0.7 nM.

Turning to `Cc1c(-c2cc(Sc3ncccc3F)c3c(C#N)cnn3c2)cnn1C[C@H]1[C@@H]2CCC[C@@H]21` [Example 235, 6-(1-(((1R,5S,6r)-bicyclo[3.1.0]hexan-6-yl)methyl)-5-methyl-1H-pyrazol-4-yl)-4-((3-fluoropyridin-2-yl)thio)pyrazolo[1,5-a]pyridine-3-carbonitrile], the IC50 was found to be 4 nM.

With `Cc1c(-c2cc(Sc3ncccc3F)c3c(C#N)cnn3c2)cnn1[C@@H]1CCNC[C@H]1O` [Example 277, 4-((3-fluoropyridin-2-yl)thio)-6-(1-((3R,4R)-3-hydroxypiperidin-4-yl)-5-methyl-1H-pyrazol-4-yl)pyrazolo[1,5-a]pyridine-3-carbonitrile], the IC50 was determined as 15 nM.

Molecule `Cc1c(-c2cc(Sc3ccc(F)cc3C#N)c3c(C#N)cnn3c2)cnn1C1CCN(C[C@@H](C)O)CC1` [Example 331, (R)-4-((2-cyano-4-fluorophenyl)thio)-6-(1-(1-(2-hydroxypropyl)piperidin-4-yl)-5-methyl-1H-pyrazol-4-yl)pyrazolo[1,5-a]pyridine-3-carbonitrile] displayed an IC50 of 1 nM.

Turning to `CC(=O)N[C@H]1CC[C@@H](n2cc(-c3cc(Sc4ccccn4)c4c(C#N)cnn4c3)cn2)CC1` [Example 314, N-((1s,4s)-4-(4-(3-cyano-4-(pyridin-2-ylthio)pyrazolo[1,5-a]pyridin-6-yl)-1H-pyrazol-1-yl)cyclohexyl)acetamide], the IC50 is 2 nM.

Turning to `Cc1nn([C@H]2CC[C@@H](N(C)C)CC2)c(C)c1-c1cc(Sc2ncccc2F)c2c(C#N)cnn2c1` [Example 304, 6-(1-((1s,4s)-4-(dimethylamino)cyclohex-yl)-3,5-dimethyl-1H-pyrazol-4-yl)-4-((3-fluoropyridin-2-yl)thio)pyrazolo[1,5-a]pryidine-3-carbonitrile], the IC50 came out at 3.5 nM.

Still in this experiment, the particulars now being: Enz FGFR2 (nM), FGFR2 wild type enzyme assay.
`N#Cc1ccccc1Sc1cc(-c2cnn(C(F)F)c2)cn2ncc(C#N)c12` [Example 584, 4-((2-cyanophenyl)thio)-6-(1-(difluoromethyl)-1H-pyrazol-4-yl)pyrazolo[1,5-a]pyridine-3-carbonitrile]: the IC50 amounted to 6 nM.

Regarding `N#Cc1ccccc1Sc1cc(-c2cnn(CCC(=O)N3CCNCC3)c2)cn2ncc(C#N)c12` [Example 675, 4-((2-cyanophenyl)thio)-6-(1-(3-oxo-3-(piperazin-1-yl)propyl)-1H-pyrazol-4-yl)pyrazolo[1,5-a]pyridine-3-carbonitrile], the IC50 is 0.6 nM.

`N#Cc1ccccc1Sc1cc(-c2c[nH]nn2)cn2ncc(C#N)c12` [Example 637, 4-((2-cyanophenyl)thio)-6-(1H-1,2,3-triazol-4-yl)pyrazolo[1,5-a]pyridine-3-carbonitrile]: the IC50 amounted to 12 nM.

Regarding `N#Cc1cnn2cc(-c3cn([C@H]4CCCNC4)nn3)cc(Sc3ncccc3F)c12` [Example 404, (S)-4-((3-fluoropyridin-2-yl)thio)-6-(1-(piperidin-3-yl)-1H-1,2,3-triazol-4-yl)pyrazolo[1,5-a]pyridine-3-carbonitrile], the IC50 amounted to 15 nM.

Regarding `N#Cc1cnn2cc(-c3cnn([C@H]4CCNC4)c3)cc(Sc3ncccc3F)c12` [Example 421, (S)-4-((3-fluorop;yridin-2-yl)thio)-6-(1-(pyrrolidin-3-yl)-1H-pyrazol-4-yl)pyrazolo[1,5-a]pyridine-3-carbonitrile], the IC50 was determined as 5 nM.

In turn, `Cn1ccc(Cn2cc(-c3cc(Sc4ccccc4C#N)c4c(C#N)cnn4c3)cn2)n1` [Example 375, 4-((2-cyanophenyl)thio)-6-(1-((1-methyl-1H-pyrazol-3-yl)methyl)-1H-pyrazol-4-yl)pyrazolo[1,5-a]pyridine-3-carbonitrile] came in with an IC50 of 0.6 nM.

`CNC(=O)CCn1cc(-c2cc(Sc3ccccc3C#N)c3c(C#N)cnn3c2)cn1` [Example 672, 3-(4-(3-cyano-4-((2-cyanophenyl)thio)pyrazolo [1,5-a]pyridin-6-yl)-1H-pyazol-1-yl)-N-methylpropanamide] came in with an IC50 of 1 nM.

`CC1(C)CC[C@H](n2cc(-c3cc(Sc4ccccc4C#N)c4c(C#N)cnn4c3)cn2)CN1` [Example 593, (S)-4-((2-cyanophenyl)thio)-6-(1-(6,6-dimethylpiperidin-3-yl)-1H-pyrazol-4-yl)pyrazolo[1,5-a]pyridine-3-carbonitrile] registered an IC50 of 1 nM.

As to `CN1CCN(c2ccc(-c3cc(Sc4ccccc4C#N)c4c(C#N)cnn4c3)cn2)CC1` [Example 527, 4-((2-cyanophenyl)thio)-6-(6-(4-methylpiperazin-1-yl)pyridin-3-yl)pyrazolo[1,5-a]pyridine-3-carbonitrile], the IC50 turned out to be 0.4 nM.

Molecule `CN(C)c1ccc(-c2cc(Sc3ccc(F)cc3C#N)c3c(C#N)cnn3c2)cn1` [Example 612, 4-((2-cyano-4-fluorophenyl)thio)-6-(6-(dimethylamino)pyridin-3-yl)pyrazolo[1,5-a]pyridine-3-carbonitrile] registered an IC50 of 2 nM.

The molecule `COC(=O)N1[C@@H]2CC[C@H]1C[C@H](n1ncc(-c3cc(Sc4ccc(F)cc4C#N)c4c(C#N)cnn4c3)c1C)C2` [Example 365, methyl (1R,3s,5S)-3-(4-(3-cyano-4-((2-cyano-4-fluorophenyl)thio)pyrazolo [1,5-a]pyridin-6-yl)-5-methyl-1H-pyrazol-1-yl)-8-azabicyclo[3.2.1]octane-8-carboxylate] showed an IC50 of 2 nM.

Turning to `C[C@H](O)C(=O)N1CCC(n2cc(-c3cc(Sc4ccc(F)cc4C#N)c4c(C#N)cnn4c3)cn2)CC1` [Example 475, (S)-4-((2-cyano-4-fluorophenyl)thio)-6-(1-(1-(2-hydroxypropanoyl)piperidin-4-yl)-1H-pyrazol-4-yl)pyrazolo[1,5-a]pyridine-3-carbonitrile], the IC50 was determined as 1 nM.

`N#Cc1ccccc1Sc1cc(-c2cnn([C@H]3CCC(=O)NC3)c2)cn2ncc(C#N)c12` [Example 623, (S)-4-((2-cyanophenyl)thio)-6-(1-(6-oxopiperidin-3-yl)-1H-pyrazol-4-yl)pyrazolo[1,5-a]pyridine-3-carbonitrile]: the IC50 was 1 nM.

The same experiment, now with this note: read-out: Enz FGFR2; FGFR2 wild type enzyme assay.
For the molecule `CC(=O)O[C@H]1CC[C@H](n2ncc(-c3cc(Sc4ccc(F)cc4C#N)c4c(C#N)cnn4c3)c2C)CC1` [Example 602, (1r,4r)-4-(4-(3-cyano-4-((2-cyano-4-fluorophenyl)thhio)pyrazolo [1,5-a]pyridin-6-yl)-5-methyl-1H-pyrazol-1-yl)cyclohexyl acetate], the IC50 came out at 2 nM.
